Experiments:
Assay in all cases: biochemical
Assay type in all cases: biochemical
[1] = molecular target: 363 human kinases (including Aurora A/B/C) (Homo sapiens, UniProt Q15569); conditions: TESK1; for remaining activity at 0.1 µM: 100 nM; for remaining activity at 0.1 µM / remaining activity at 0.5 µM: read-out: % Enzyme Activity (relative to DMSO controls)
Source text: (§1) However, the Aurora A/B selectivity ratios derived from our in vitro and in vivo data can be compared to prioritize inhibitors.

[2] = molecular target: T1, 363 human kinases (including Aurora A/B/C) (Homo sapiens, UniProt P29322); conditions: EPHA8, [ATP] 100 µM; for remaining activity at 0.1 µM: 100 nM; for remaining activity at 0.1 µM / remaining activity at 0.5 µM: read-out: % Enzyme Activity (relative to DMSO controls)
T1 sequence (P29322 28-1005): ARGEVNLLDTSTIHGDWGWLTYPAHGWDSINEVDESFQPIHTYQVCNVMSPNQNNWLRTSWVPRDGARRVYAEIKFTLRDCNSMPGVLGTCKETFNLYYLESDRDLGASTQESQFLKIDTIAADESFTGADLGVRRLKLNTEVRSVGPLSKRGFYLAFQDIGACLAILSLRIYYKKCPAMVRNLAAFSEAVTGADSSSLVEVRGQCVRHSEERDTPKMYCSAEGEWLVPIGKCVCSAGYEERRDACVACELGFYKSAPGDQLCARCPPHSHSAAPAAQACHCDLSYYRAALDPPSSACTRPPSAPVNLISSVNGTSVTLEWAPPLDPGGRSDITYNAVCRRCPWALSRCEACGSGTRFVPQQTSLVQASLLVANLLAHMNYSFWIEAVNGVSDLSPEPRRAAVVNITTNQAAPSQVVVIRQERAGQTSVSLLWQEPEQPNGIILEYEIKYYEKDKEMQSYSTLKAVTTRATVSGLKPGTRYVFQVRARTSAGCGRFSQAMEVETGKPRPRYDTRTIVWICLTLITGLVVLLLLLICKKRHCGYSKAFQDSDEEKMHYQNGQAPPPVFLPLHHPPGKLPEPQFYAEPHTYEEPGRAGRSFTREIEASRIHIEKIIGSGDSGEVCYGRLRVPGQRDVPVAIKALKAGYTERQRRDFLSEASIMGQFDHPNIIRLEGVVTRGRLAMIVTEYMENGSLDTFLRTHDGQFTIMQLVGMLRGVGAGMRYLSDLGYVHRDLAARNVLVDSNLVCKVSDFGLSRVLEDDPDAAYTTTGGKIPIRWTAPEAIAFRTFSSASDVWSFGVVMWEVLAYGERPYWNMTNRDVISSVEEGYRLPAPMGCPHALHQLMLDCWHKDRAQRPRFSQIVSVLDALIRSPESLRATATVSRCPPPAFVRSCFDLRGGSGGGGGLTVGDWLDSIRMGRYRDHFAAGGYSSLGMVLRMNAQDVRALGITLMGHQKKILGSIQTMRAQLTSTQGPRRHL
Source text: as §1

[3] = molecular target: T2, 363 human kinases (including Aurora A/B/C) (Homo sapiens, UniProt O00141); conditions: SGK1; for remaining activity at 0.1 µM: 100 nM; for remaining activity at 0.1 µM / remaining activity at 0.5 µM: read-out: % Enzyme Activity (relative to DMSO controls)
T2 sequence (O00141 1-431): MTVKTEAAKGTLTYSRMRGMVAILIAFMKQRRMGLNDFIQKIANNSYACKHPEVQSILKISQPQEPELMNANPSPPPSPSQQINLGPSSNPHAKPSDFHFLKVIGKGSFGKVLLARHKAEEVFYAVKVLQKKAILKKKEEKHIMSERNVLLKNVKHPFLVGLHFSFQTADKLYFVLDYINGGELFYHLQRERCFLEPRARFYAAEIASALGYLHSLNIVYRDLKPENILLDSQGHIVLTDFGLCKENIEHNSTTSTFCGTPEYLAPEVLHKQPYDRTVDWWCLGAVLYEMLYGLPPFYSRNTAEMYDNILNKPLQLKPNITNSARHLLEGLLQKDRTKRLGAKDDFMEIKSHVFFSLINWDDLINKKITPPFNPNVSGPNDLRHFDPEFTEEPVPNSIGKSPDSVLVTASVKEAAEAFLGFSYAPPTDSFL
Source text: as §1

[4] = molecular target: T3, 363 human kinases (including Aurora A/B/C) (Homo sapiens, UniProt Q86YV6); conditions: MYLK4; for remaining activity at 0.1 µM: 100 nM; for remaining activity at 0.1 µM / remaining activity at 0.5 µM: read-out: % Enzyme Activity (relative to DMSO controls)
T3 sequence (Q86YV6 1-388): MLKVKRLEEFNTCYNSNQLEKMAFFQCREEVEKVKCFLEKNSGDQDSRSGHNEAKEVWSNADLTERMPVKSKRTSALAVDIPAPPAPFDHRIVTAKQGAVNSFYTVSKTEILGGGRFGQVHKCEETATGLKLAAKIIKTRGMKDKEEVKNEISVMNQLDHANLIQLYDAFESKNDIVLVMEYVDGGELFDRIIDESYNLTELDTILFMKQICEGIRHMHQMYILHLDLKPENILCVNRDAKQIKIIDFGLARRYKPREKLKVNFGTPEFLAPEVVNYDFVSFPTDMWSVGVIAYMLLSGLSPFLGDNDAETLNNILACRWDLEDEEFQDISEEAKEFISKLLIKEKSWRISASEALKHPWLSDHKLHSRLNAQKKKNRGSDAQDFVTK
Source text: as §1

[5] = molecular target: T4, 363 human kinases (including Aurora A/B/C) (Homo sapiens, UniProt O43781); conditions: DYRK3, [ATP] 5 µM; for remaining activity at 0.1 µM: 100 nM; for remaining activity at 0.1 µM / remaining activity at 0.5 µM: read-out: % Enzyme Activity (relative to DMSO controls)
T4 sequence (O43781 1-588): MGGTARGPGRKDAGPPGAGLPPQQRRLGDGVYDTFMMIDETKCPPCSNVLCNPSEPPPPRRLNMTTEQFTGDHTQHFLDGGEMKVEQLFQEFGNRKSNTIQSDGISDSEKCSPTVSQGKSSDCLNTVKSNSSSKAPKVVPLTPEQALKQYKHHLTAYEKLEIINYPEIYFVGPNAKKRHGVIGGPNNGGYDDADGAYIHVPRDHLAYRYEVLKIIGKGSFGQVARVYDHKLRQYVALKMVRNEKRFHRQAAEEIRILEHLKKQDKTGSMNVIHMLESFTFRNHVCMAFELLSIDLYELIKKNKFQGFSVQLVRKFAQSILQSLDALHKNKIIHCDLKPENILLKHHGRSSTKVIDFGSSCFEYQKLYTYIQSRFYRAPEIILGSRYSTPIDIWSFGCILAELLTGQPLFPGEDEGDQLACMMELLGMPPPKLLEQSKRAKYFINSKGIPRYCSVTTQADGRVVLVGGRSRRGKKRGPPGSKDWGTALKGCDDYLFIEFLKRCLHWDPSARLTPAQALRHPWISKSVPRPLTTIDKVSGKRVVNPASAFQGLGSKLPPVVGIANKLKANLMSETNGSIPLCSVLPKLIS
Source text: as §1

[6] = molecular target: 363 human kinases (including Aurora A/B/C) (Homo sapiens, UniProt P78368); conditions: CK1g2, [ATP] 100 µM; for remaining activity at 0.1 µM: 100 nM; for remaining activity at 0.1 µM / remaining activity at 0.5 µM: read-out: % Enzyme Activity (relative to DMSO controls)
Chain of 363 human kinases (including Aurora A/B/C) (Homo sapiens, UniProt P78368) (P78368 whole entry): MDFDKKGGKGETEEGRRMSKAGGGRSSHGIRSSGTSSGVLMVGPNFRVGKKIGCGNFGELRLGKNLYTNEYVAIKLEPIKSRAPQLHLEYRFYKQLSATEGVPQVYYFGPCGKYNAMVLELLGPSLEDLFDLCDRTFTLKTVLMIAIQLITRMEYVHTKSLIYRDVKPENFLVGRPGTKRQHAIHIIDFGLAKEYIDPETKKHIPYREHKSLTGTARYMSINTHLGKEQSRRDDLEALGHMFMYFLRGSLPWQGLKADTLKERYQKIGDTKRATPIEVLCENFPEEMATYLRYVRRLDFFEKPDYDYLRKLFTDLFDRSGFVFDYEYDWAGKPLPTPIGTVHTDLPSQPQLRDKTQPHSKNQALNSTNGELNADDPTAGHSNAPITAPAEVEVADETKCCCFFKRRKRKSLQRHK
Source text: as §1

Chain of 363 human kinases (including Aurora A/B/C) (Homo sapiens, UniProt Q15569) (Q15569 whole entry): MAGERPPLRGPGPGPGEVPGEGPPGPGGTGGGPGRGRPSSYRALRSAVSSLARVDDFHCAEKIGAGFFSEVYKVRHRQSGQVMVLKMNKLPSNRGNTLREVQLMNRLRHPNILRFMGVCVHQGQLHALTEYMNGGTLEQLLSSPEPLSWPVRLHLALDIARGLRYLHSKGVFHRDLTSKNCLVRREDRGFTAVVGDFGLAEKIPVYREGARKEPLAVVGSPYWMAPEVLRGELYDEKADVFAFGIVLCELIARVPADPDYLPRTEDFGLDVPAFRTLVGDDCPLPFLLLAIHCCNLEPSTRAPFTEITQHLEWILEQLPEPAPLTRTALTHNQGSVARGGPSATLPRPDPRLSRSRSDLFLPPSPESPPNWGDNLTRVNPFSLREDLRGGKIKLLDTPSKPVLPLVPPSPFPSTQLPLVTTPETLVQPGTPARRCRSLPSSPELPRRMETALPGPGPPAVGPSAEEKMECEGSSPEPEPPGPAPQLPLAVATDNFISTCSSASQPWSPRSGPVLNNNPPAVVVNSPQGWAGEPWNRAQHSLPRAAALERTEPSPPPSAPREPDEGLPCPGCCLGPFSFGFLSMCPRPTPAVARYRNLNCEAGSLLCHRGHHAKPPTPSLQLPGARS

SMILES | remaining activity at 0.1 µM [1] | remaining activity at 0.1 µM [2] | remaining activity at 0.1 µM [3] | remaining activity at 0.1 µM [4] | remaining activity at 0.1 µM [5] | remaining activity at 0.1 µM [6] | remaining activity at 0.5 µM ([1]; 500 nM) | remaining activity at 0.5 µM ([2]; 500 nM) | remaining activity at 0.5 µM ([3]; 500 nM) | remaining activity at 0.5 µM ([4]; 500 nM) | remaining activity at 0.5 µM ([5]; 500 nM) | remaining activity at 0.5 µM ([6]; 500 nM) | % Enzyme Activity (relative to DMSO controls) ([1]; 500 nM) | % Enzyme Activity (relative to DMSO controls) ([2]; 500 nM) | % Enzyme Activity (relative to DMSO controls) ([3]; 500 nM) | % Enzyme Activity (relative to DMSO controls) ([4]; 500 nM) | % Enzyme Activity (relative to DMSO controls) ([5]; 500 nM) | % Enzyme Activity (relative to DMSO controls) ([6]; 500 nM)
CCn1cc(-c2ccnc3[nH]c(-c4cccc(CN(C)C)c4)cc23)c(-c2ccc(NC(=O)N(C)C)cc2)n1 [GSK1070916] | 103% | 92% | 118% | 94.3% | 96% | 89.5% |  |  |  |  |  |  |  |  |  |  |  | 
O=C(O)[C@]1(Cc2cccc(Nc3nccs3)n2)CC[C@@H](Oc2cccc(Cl)c2F)CC1 [MK-5108] | 97.9% | 88.7% | 104% | 93% | 87.2% | 107% | 99.8% | 67.9% | 113% | 90.4% | 92.2% | 80.2% |  |  |  |  |  | 
O=C(c1cccc(Cl)c1F)N1CCN(Cc2cccc(Nc3nccs3)n2)CC1 [MK-8745] |  |  |  |  |  |  | 99.9% | 86.1% | 104% | 93% | 92.3% | 87.5% | 97.82% | 85.09% | 103.73% | 92.44% | 92.33% | 86.46%
